According to US20200010482A1, “INHIBITORS OF BETA SECRETASE” (Janssen Pharmaceutica NV, priority 2017, published 2020):

Key:
β-secretase II (BACE2) = molecular target: T1, β-secretase II (BACE2) (Homo sapiens, UniProt Q9Y5Z0); test: Biochemical assay, automated (CyclOps), BACE2; details: automated CyclOps bioassay
T1 sequence (Q9Y5Z0 63-518): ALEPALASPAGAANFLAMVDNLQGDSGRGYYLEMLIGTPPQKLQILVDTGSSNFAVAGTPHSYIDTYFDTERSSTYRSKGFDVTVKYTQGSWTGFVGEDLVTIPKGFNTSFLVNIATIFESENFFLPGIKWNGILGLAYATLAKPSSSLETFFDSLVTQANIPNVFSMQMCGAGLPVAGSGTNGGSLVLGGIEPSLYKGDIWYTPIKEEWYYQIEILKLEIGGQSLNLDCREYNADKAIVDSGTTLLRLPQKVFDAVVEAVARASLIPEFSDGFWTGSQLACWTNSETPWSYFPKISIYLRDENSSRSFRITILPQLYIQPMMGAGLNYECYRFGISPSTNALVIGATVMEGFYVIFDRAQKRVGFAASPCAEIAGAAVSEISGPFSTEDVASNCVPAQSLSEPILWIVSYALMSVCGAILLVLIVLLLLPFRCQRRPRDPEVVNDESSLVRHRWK
Description: (§1) Unless otherwise indicated all biochemicals were purchased from Sigma-Aldrich Chemical Company, Poole, Dorset, U.K. and non-aqueous solvents, of analytical or higher grade, were purchased from ThermoFisher Scientific, Loughborough, U.K. MilliQ water (Elix 5 & MilliQ Gradient; Merck Millipore) was used as the base aqueous solvent to make up the biological buffers. Base assay buffer was prepared by adding a 50 mM solution of citric acid (1.00244; Merck Biosciences) to stirring solution of 50 mM trisodium citrate (1.06448; Merck Biosciences) until a final pH of 5.0 was achieved. […] All assays were routinely carried out in 384-well assay plates (Costar 4514; Corning Life Sciences) and incubated at 37±1° C. for 60 min. prior to reading the endpoint fluorescence intensity. The (7-methoxyl coumarin-4-yl)acetic acid based substrate β-secretase substrate VI (M2465; Bachem) was prepared as a 1 mM stock in 100% DMSO (D/4121/PB08; ThermoFisher). Assay buffer was prepared by adding DMSO to base buffer to a final concentration of 1% (vol./vol.). β-secretase I (18.64 μM; “BACE1”) and β-secretase II (4.65 μM; “BACE2”) were obtained from Janssen Pharmaceutica, Beerse, Belgium and were stored as frozen aliquots (˜20 μl) and thawed as required.
(§2) Typically 12.5 μl of assay buffer was dispensed to rows B to P of the assay plate. To row A was added 18.75 μl of test compound diluted appropriately in assay buffer. A 6.25 μl aliquot of sample was transferred from row A to row B and the sample mixed three times by pipette. The process was repeated down the plate and 6.25 μl of solution discarded at row N post-mix. Rows O and P were designated as the positive and negative controls. To row P was added 6.25 μl base buffer. To rows A to O was added 6.25 μl enzyme (freshly prepared 40 nM BACE1 or 40 nM BACE2) diluted in base buffer. To initiate the assay 6.25 μl of freshly prepared 80 μM substrate, made up by diluting the 1 mM in 100% DMSO solution into HPLC grade water (Optima W6-212; ThermoFisher), was added to all the wells. The assay plate was covered and incubated at 37±1° C. for 60 min. The fluorescence intensity of the wells was read at 360/405 nm (excitation/emission) utilising a nine reads per well protocol (50 ms integration; density of 3, 0.25 mm spacing; SpectraMAX Paradigm plate reader; TUNE cartridge; SoftMax Pro v 6.3 software; Molecular Devices UK Ltd., Wokingham, Berkshire, UK) and outputting the median value of the nine reads as a text file. Data analysis was carried out using Prism software v 6.3 (GraphPad Inc., San Diego, Calif., USA) using the non-linear regression analysis models supplied by the vendor. For IC50 determinations the four parameter logistic variable slope model was used to fit the raw fluorescence intensity data with the ‘bottom’ fixed to the negative control.
(§3) The CyclOps bioassay module consisted of a fraction collection station, a reagent station, liquid handling robotics, plate store and an integrated plate reader (SpectraMAX Paradigm, TUNE cartridge, SoftMax Pro v 6.3; Molecular Devices). The fraction collection station composed of a 384 well collection plate (P-384-240SQ-C; Axygen, Union City, Calif., USA) mounted on a H-portal carriage (Festo AG & Co. KG, Esslingen, Germany), a syringe drive and a two-way six port injection valve fitted with a 200 μl loop (VICI AG International, Schenkon Switzerland). The output of the injection valve was addressable to all the positions of a 384 well collection plate. The reagent station consisted of hydraulically cooled (10-12° C.) aluminium segments; each manufactured to house a SBS microtiter plate footprint. Independent addressable reagent stations were housed within these sections. Where required, custom aluminium housings were used to accommodate standard laboratory plastic ware (e.g. Eppendorf tubes, Falcon tubes, etc.). As and when required the reagent reservoirs were covered and the lids contained holes through which the Teflon-coated probe could access solutions. […]

β-secretase I (BACE1) = β-secretase I (BACE1) (Homo sapiens, UniProt P56817); test: Biochemical assay, automated (CyclOps), BACE1; details: automated CyclOps bioassay
Description: as §1, §2, §3

β-secretase I (BACE1), sequence (P56817 46-501): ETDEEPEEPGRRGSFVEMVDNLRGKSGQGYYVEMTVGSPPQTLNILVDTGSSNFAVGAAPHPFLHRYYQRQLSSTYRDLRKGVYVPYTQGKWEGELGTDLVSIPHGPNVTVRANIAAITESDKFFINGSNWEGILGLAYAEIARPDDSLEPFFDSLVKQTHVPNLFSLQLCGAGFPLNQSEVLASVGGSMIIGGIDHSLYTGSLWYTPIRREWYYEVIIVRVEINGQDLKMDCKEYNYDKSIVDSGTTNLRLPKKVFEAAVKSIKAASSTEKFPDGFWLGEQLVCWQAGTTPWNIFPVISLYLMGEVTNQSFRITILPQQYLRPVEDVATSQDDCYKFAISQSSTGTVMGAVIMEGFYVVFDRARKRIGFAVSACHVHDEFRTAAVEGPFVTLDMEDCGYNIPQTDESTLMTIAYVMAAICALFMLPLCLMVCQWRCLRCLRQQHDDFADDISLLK

Row | SMILES | AUTOMATED ASSAY BACE2 pIC50 (β-secretase II (BACE2)) | AUTOMATED ASSAY BACE1 pIC50 (β-secretase I (BACE1)) | IC50 (β-secretase II (BACE2); read-out: AUTOMATED ASSAY BACE2 pIC50 (converted)) [nM] | IC50 (β-secretase I (BACE1); read-out: AUTOMATED ASSAY BACE1 pIC50 (converted)) [nM]
1 | COc1ncc(-c2cccc(C)c2C)c2c1C[C@]1(c3ccc(F)cc3F)N=C(N)SC[C@@H]1C2 [Compound 56] | 7.63 | 8.11 |  | 
2 | COc1ncc(-c2cccc3cnccc23)c2c1C[C@]1(c3ccc(F)cc3F)N=C(N)SC[C@@H]1C2 [Compound 132] | 7.16 | 7.82 |  | 
3 | COc1ncc(-c2c(C)noc2C)c2c1C[C@]1(c3cc(OCc4c(C)noc4C)ccc3F)N=C(N)SC[C@@H]1C2 [Compound 153] | 6.64 | 6.73 |  | 
4 | COc1ncc(-c2coc3ccccc23)c2c1C[C@]1(c3ccc(F)cc3F)N=C(N)SC[C@@H]1C2 [Compound 130] | 7.03 | 7.4 |  | 
5 | COc1ncc(-c2cccc3cnn(C)c23)c2c1C[C@]1(c3ccc(F)cc3F)N=C(N)SC[C@@H]1C2 [Compound 127] | 5.6 | 6.77 |  | 
6 | COc1ccc(F)cc1-c1cnc(OC)c2c1C[C@H]1CSC(N)=N[C@@]1(c1cc(OCC3CCOCC3)ccc1F)C2 [Compound 143] | 4.78 | 6.43 |  | 
7 | COc1ncc(/C=C/c2ccc(F)cc2)c2c1C[C@]1(c3ccc(F)cc3F)N=C(N)SC[C@@H]1C2 [Compound 48] | 7.63 | 7.76 |  | 
8 | COc1ncc(-c2ccc(Cl)c(C)c2)c2c1C[C@]1(c3ccc(F)cc3F)N=C(N)SC[C@@H]1C2 [Compound 59] | 7.15 | 7.68 |  | 
9 | COc1ncc(-c2ccccc2C)c2c1C[C@]1(c3cc(OCCc4c(C)noc4C)ccc3F)N=C(N)SC[C@@H]1C2 [Compound 144] | 6.43 | 7.42 |  | 
10 | COc1ncc(-c2ccccc2F)c2c1C[C@]1(c3ccc(F)cc3F)N=C(N)SC[C@@H]1C2 [Compound 50] | 7.96 | 8.28 |  | 
11 | COc1ncc(-c2c(C)noc2C)c2c1C[C@]1(c3cc(OCC4CCC4)ccc3F)N=C(N)SC[C@@H]1C2 [Compound 155] | 6.12 | 7.77 |  | 
12 | COc1ncc(-c2ccccc2F)c2c1C[C@]1(c3cc(OCCC#N)ccc3F)N=C(N)SC[C@@H]1C2 [Compound 156] | 6.36 | 6.32 |  | 
13 | COc1ncc(-c2cc(C(F)(F)F)ccc2F)c2c1C[C@]1(c3ccc(F)cc3F)N=C(N)SC[C@@H]1C2 [Compound 51] | 6.83 | 7.34 |  | 
14 | COc1ncc(-c2ccccc2)c2c1C[C@]1(c3cc(OCc4ccccc4)ccc3F)N=C(N)SC[C@@H]1C2 [Compound 138] |  |  | 32.4 | 61.7
15 | COc1ncc(-c2csc3ccccc23)c2c1C[C@]1(c3ccc(F)cc3F)N=C(N)SC[C@@H]1C2 [Compound 133] | 7.67 | 8.6 |  | 
16 | COc1ncc(-c2cccc3c2OCCC3)c2c1C[C@]1(c3ccc(F)cc3F)N=C(N)SC[C@@H]1C2 [Compound 128] | 6.19 | 7.01 |  | 
17 | COc1ncc(-c2ccccc2)c2c1C[C@]1(c3cc(OCc4ccc(F)cc4)ccc3F)N=C(N)SC[C@@H]1C2 [Compound 154] | 7.88 | 7.51 |  | 
18 | COc1ncc(-c2c(C)noc2C)c2c1C[C@]1(c3cc(OC4CCOCC4)ccc3F)N=C(N)SC[C@@H]1C2 [Compound 146] | 6.63 | 6.74 |  | 
19 | COc1ncc(-c2c(C)noc2C)c2c1C[C@]1(c3cc(OCc4cccc(C#N)c4)ccc3F)N=C(N)SC[C@@H]1C2 [Compound 147] | 6.64 | 7.7 |  | 
20 | COc1ncc(-c2c(C)noc2C)c2c1C[C@]1(c3cc(OCCC4CCCC4)ccc3F)N=C(N)SC[C@@H]1C2 [Compound 150] | 5.3 | 6.12 |  | 
21 | COc1cccc(COc2ccc(F)c([C@]34Cc5c(OC)ncc(-c6c(C)noc6C)c5C[C@H]3CSC(N)=N4)c2)c1 [Compound 145] | 5.52 | 6.89 |  | 
22 | COc1ncc(-c2c(C)noc2C)c2c1C[C@]1(c3cc(OCCC4CCCCC4)ccc3F)N=C(N)SC[C@@H]1C2 [Compound 149] | 5.17 | 5.09 |  | 
23 | COc1cc(C)c(-c2cnc(OC)c3c2C[C@H]2CSC(N)=N[C@@]2(c2cc(OCC4CCOCC4)ccc2F)C3)cn1 [Compound 152] | 5.65 | 7.52 |  | 
24 | COc1ncc(-c2ccc(F)cc2C)c2c1C[C@]1(c3ccc(F)cc3F)N=C(N)SC[C@@H]1C2 [Compound 58] | 6.99 | 7.77 |  | 
25 | COc1ncc(-c2cc(F)cc(F)c2)c2c1C[C@]1(c3ccc(F)cc3F)N=C(N)SC[C@@H]1C2 [Compound 54] | 8.42 | 8.54 |  | 
26 | COc1ncc(-c2ccccc2C)c2c1C[C@]1(c3cc(OCC4CCC4)ccc3F)N=C(N)SC[C@@H]1C2 [Compound 142] | 7.28 | 8.4 |  | 
27 | COc1ccc(OC)c(-c2cnc(OC)c3c2C[C@H]2CSC(N)=N[C@@]2(c2cc(OCc4ccccc4F)ccc2F)C3)c1 [Compound 139] | 4.97 | 5.55 |  | 
28 | COc1ncc(-c2c(C)noc2C)c2c1C[C@]1(c3cc(OCCOC4CCCCC4)ccc3F)N=C(N)SC[C@@H]1C2 [Compound 148] | 5.19 | 6 |  | 
